Source: US9458153B2, “Dihydroquinolizinones for the treatment and prophylaxis of hepatitis B virus infection” (Hoffmann-La Roche Inc., priority 2014, dated 2016)
Structures can show the parent of a compound that is named as a salt.

Test system: HBsAg
Assay: HBsAg assay (chemiluminescence immunoassay of secreted HBsAg in HepG2.2.15 culture supernatant)
Format: cell-based, HBV
Conditions: HBsAg secretion reduced by 50% vs no drug control; HepG2.2.15 cells; CLIA kit
Method: HepG2.2.15 cells (Acs et al. Proc Natl Acad Sci USA, 84, (1987), 4641-4), a constitutively HBV-expressing cell line were cultured in DMEM+Glutamax-I medium (Invitrogen, Carlsbad, Calif., USA), supplemented with 10% fetal bovine serum (Invitrogen) and G418 (Invitrogen) at a final concentration of 200 mg/L and maintained in 5% CO2 at 37° C.
HepG2.2.15 cells were seeded in duplicate into white, 96-well plates at 1.5×10^4 cells/well. The cells were treated with a three-fold serial dilution series of the compounds in DMSO. The final DMSO concentration in all wells was 1% and DMSO was used as no drug control.
The HBsAg chemiluminescence immunoassay (CLIA) kit (Autobio Diagnostics Co., Zhengzhou, China, Catalog number: CL0310-2) was used to measure the levels of secreted HBV antigens semi-quantitatively. For the detection 50 μL/well culture supernatant was used and HBsAg was quantified using HBsAg chemiluminescence immunoassay (CLIA) kit (Autobio Diagnostics Co., Zhengzhou, China, Catalog number: CL0310-2), 50 μL of the supernatant was transferred to the CLIA assay plate and 50 μL of enzyme conjugate reagent was added into each well. The plates were sealed and gently agitated for 1 hour at room temperature. The supernatant-enzyme-mixture was discarded and wells were washed 6 times with 300 μL of PBS. The residual liquid was removed by plating the CLIA plate right side down on absorbent tissue paper. 25 μL of substrates A and B were added to each well. Luminance was measured using a luminometer (Mithras LB 940 Multimode Microplate Reader) after 10 minutes incubation. Dose-response curves were generated and the IC50 value was extrapolated by using the E-WorkBook Suite (ID Business Solutions Ltd., Guildford, UK).
The compounds of the present invention were tested for their capacity to inhibit HBsAg as described herein.

How did the IC50 turn out when `COc1cc2c(cc1OCC(F)F)CC(C(C)C)n1cc(C(=O)O)c(=O)cc1-2` (single isomer, unassigned; (+)) [Example 142, (+)-9-(2,2-difluoroethoxy)-6-isopropyl-10-methoxy-2-oxo-6,7-dihydrobenzo[a]quinolizine-3-carboxylic acid] was run?
Its IC50 is 4 nM.

For `COc1cc2c(cc1OCC(C)(C)CO)CC(C(C)C)n1cc(C(=O)O)c(=O)cc1-2` (single isomer, unassigned; (+)) [Example 145, (+)-9-(3-hydroxy-2,2-dimethyl-propoxy)-6-isopropyl-10-methoxy-2-oxo-6,7-dihydrobenzo[a]quinolizine-3-carboxylic acid], which IC50 is on record?
The IC50 was 6 nM.

How did the IC50 turn out when `COc1cc2c(cc1OCC(C)(C)CO)CC(C(C)(C)C)n1cc(C(=O)O)c(=O)cc1-2` (single isomer, unassigned; (+)) [Example 150, (+)-6-tert-butyl-9-(3-hydroxy-2,2-dimethyl-propoxy)-10-methoxy-2-oxo-6,7-dihydrobenzo[a]quinolizine-3-carboxylic acid] was run?
The IC50 was 2 nM.

Which IC50 does the source give for `COc1cc2c(cc1OCCCCCO)CC(C(C)(C)C)n1cc(C(=O)O)c(=O)cc1-2` (single isomer, unassigned; (+)) [Example 153, (+)-6-tert-butyl-9-(5-hydroxypentoxy)-10-methoxy-2-oxo-6,7-dihydrobenzo[a]quinolizine-3-carboxylic acid] here?
The IC50 was 1 nM.

`COc1cc2c(cc1OCCCCCCO)CC(C(C)(C)C)n1cc(C(=O)O)c(=O)cc1-2` (single isomer, unassigned; (+)) [Example 156, (+)-6-tert-butyl-9-(6-hydroxyhexoxy)-10-methoxy-2-oxo-6,7-dihydrobenzo[a]quinolizine-3-carboxylic acid] was tested. Which IC50 did it give?
Its IC50 is 1 nM.

Which IC50 does the source give for `COc1cc2c(cc1OCCCCCCNC(=O)OC(C)(C)C)CC(C(C)(C)C)n1cc(C(=O)O)c(=O)cc1-2` (single isomer, unassigned; (+)) [Example 162, (+)-9-[6-(tert-butoxycarbonylamino)hexoxy]-6-tert-butyl-10-methoxy-2-oxo-6,7-dihydrobenzo[a]quinolizine-3-carboxylic acid] here?
The IC50 was 2 nM.

With `COc1cc2c(cc1OCCCCCCCCNC(=O)OC(C)(C)C)CC(C(C)(C)C)n1cc(C(=O)O)c(=O)cc1-2` (single isomer, unassigned; (+)) [Example 168, (+)-9-[8-(tert-butoxycarbonylamino)octoxy]-6-tert-butyl-10-methoxy-2-oxo-6,7-dihydrobenzo[a]quinolizine-3-carboxylic acid] as the compound, how does the IC50 read?
The IC50 was 6 nM.

How did the IC50 turn out when `COc1cc2c(cc1OCCCSC)CC(C(C)(C)C)n1cc(C(=O)O)c(=O)cc1-2` (single isomer, unassigned; (+)) [Example 184, (+)-6-tert-butyl-10-methoxy-9-(3-methylsulfanylpropoxy)-2-oxo-6,7-dihydrobenzo[a]quinolizine-3-carboxylic acid] was run?
The IC50 was 1 nM.

For `COc1cc2c(cc1OCCCS(C)(=O)=O)CC(C(C)(C)C)n1cc(C(=O)O)c(=O)cc1-2` (single isomer, unassigned; (+)) [Example 187, (+)-6-tert-butyl-10-methoxy-9-(3-methylsulfonylpropoxy)-2-oxo-6,7-dihydrobenzo[a]quinolizine-3-carboxylic acid], which IC50 is on record?
The IC50 was 13 nM.

For `COc1cc2c(cc1OCCCN1CCOCC1)CC(C(C)(C)C)n1cc(C(=O)O)c(=O)cc1-2` (single isomer, unassigned; (+)) [Example 193, (+)-6-tert-butyl-10-methoxy-9-(3-morpholinopropoxy)-2-oxo-6,7-dihydrobenzo[a]quinolizine-3-carboxylic acid], which IC50 is on record?
The IC50 was 3 nM.

How did the IC50 turn out when `COCCCOc1cc2c(cc1OC)-c1cc(=O)c(C(=O)O)cn1C(CC(F)(F)F)C2` (single isomer, unassigned; (+)) [Example 200, (+)-10-methoxy-9-(3-methoxypropoxy)-2-oxo-6-(2,2,2-trifluoroethyl)-6,7-dihydrobenzo[a]quinolizine-3-carboxylic acid] was run?
Its IC50 is 24 nM.

How did the IC50 turn out when `COCCCOc1cc2c(cc1Cl)-c1cc(=O)c(C(=O)O)cn1C(C(C)(C)C)C2` (single isomer, unassigned; (+)) [Example 203, (+)-6-tert-butyl-10-chloro-9-(3-methoxypropoxy)-2-oxo-6,7-dihydrobenzo[a]quinolizine-3-carboxylic acid] was run?
The IC50 was 0.3 nM.

`COCCCOc1cc2c(c(F)c1F)-c1cc(=O)c(C(=O)O)cn1C(C(C)C)C2` (single isomer, unassigned; (+)) [Example 214, (+)-10,11-difluoro-6-isopropyl-9-(3-methoxypropoxy)-2-oxo-6,7-dihydrobenzo[a]quinolizine-3-carboxylic acid] was tested. Which IC50 did it give?
Its IC50 is 15 nM.

For `CCOc1cc2c(cc1OCC)-c1cc(=O)c(C(=O)O)cn1C(CC)C2` (single isomer, unassigned; (-)) [Example 7, (−)-9,10-diethoxy-6-ethyl-2-oxo-6,7-dihydrobenzo[a]quinolizine-3-carboxylic acid], which IC50 is on record?
The IC50 was 1900 nM.

Which IC50 does the source give for `CCC1Cc2cc(OCc3ccccc3)c(OC)cc2-c2cc(=O)c(C(=O)O)cn21` (single isomer, unassigned; (-)) [Example 10, (−)-9-benzyloxy-6-ethyl-10-methoxy-2-oxo-6,7-dihydrobenzo[a]quinolizine-3-carboxylic acid] here?
The IC50 was 1240 nM.

`CCC1Cc2cc(OCC(F)(F)F)c(OC)cc2-c2cc(=O)c(C(=O)O)cn21` (single isomer, unassigned; (-)) [Example 12, (−)-6-ethyl-10-methoxy-2-oxo-9-(2,2,2-trifluoroethoxy)-6,7-dihydrobenzo[a]quinolizine-3-carboxylic acid] was tested. Which IC50 did it give?
The IC50 was 5200 nM.

For `CCC1Cc2cc(OCC(C)(C)CO)c(OC)cc2-c2cc(=O)c(C(=O)O)cn21` (single isomer, unassigned; (-)) [Example 24, (−)-6-ethyl-9-(3-hydroxy-2,2-dimethyl-propoxy)-10-methoxy-2-oxo-6,7-dihydrobenzo[a]quinolizine-3-carboxylic acid], which IC50 is on record?
Its IC50 is 1350 nM.

For `CCC1Cc2cc(OCCOC)c(OC)cc2-c2cc(=O)c(C(=O)O)cn21` (single isomer, unassigned; (-)) [Example 29, (−)-6-ethyl-10-methoxy-9-(2-methoxyethoxy)-2-oxo-6,7-dihydrobenzo[a]quinolizine-3-carboxylic acid], which IC50 is on record?
The IC50 was 1950 nM.

Same assay, conditions: HBsAg secretion reduced by 50% vs no drug control; HepG2.2.15 cells; CLIA kit; hydrochloride

With `COc1cc2c(cc1OCCCCCCN)CC(C(C)(C)C)n1cc(C(=O)O)c(=O)cc1-2` (single isomer, unassigned; (+)) [Example 164, (+)-9-(6-aminohexoxy)-6-tert-butyl-10-methoxy-2-oxo-6,7-dihydrobenzo[a]quinolizine-3-carboxylic acid hydrochloride] as the compound, how does the IC50 read?
Its IC50 is 3 nM.

With `COc1cc2c(cc1OCCCCCCCCN)CC(C(C)(C)C)n1cc(C(=O)O)c(=O)cc1-2` (single isomer, unassigned; (+)) [Example 170, (+)-9-(8-aminooctoxy)-6-tert-butyl-10-methoxy-2-oxo-6,7-dihydrobenzo[a]quinolizine-3-carboxylic acid hydrochloride] as the compound, how does the IC50 read?
Its IC50 is 8 nM.

How did the IC50 turn out when `COc1cc2c(cc1OCCCCCN)CC(C(C)(C)C)n1cc(C(=O)O)c(=O)cc1-2` (single isomer, unassigned; (+)) [Example 173, (+)-9-(5-aminopentoxy)-6-tert-butyl-10-methoxy-2-oxo-6,7-dihydrobenzo[a]quinolizine-3-carboxylic acid hydrochloride] was run?
Its IC50 is 21 nM.
